Each compound was assayed against IDO1 (Homo sapiens, UniProt P14902) (assay: IDO1 Cellular Assay in Hela Cells Stimulated with IFNγ). Settings: IFNγ 100 ng/mL, 300 uM L-tryptophan, about 48 hours, fluorescence readout, read-out: IDO1 HELA Cell Assay, IC50.
Format: cell-based
Description: Biological Assays IDO1 Cellular Assay in Hela Cells Stimulated with IFNγ
Hela cells were cultured in complete Hela culture medium ([…], 10% heat-inactivated fetal bovine serum) and expanded to about 1×10^9 cells. The cells were then collected and frozen down at 10×10^6 cells/vial in 1 mL frozen medium (90% complete Hela culture medium, 10% DMSO).
Compounds to be tested were serially diluted in ten 3-fold steps in DMSO starting from 10 mM DMSO stocks in Echo low volume plate(s). Compound dilutions or DMSO alone were then dispensed from the dilution plate(s) into Greiner black 384-well assay plate(s) (catalog #781086, 50 nL/well) using an Echo 550 acoustic liquid handler (Labcyte).
Frozen Hela cells were thawed and transferred into Hela assay medium (99% complete Hela culture medium, 1% Pen/Strep) with 20 mL medium/vial of cells. The cells were spun down at 250 g in a table top centrifuge for 5 min and suspended in same volume of Hela assay medium. […] Sterile L-tryptophan were added to the cells with final concentration of 300 uM L-tryptophan. A small aliquot (2 mL/plate) of Hela cells were set aside and were not treated with IFNγ, to serve as the Max-E control. The rest of Hela cells were added with sterile IFNγ (Cat #285-IF, R & D systems) with a final concentration of 100 ng/mL.
Hela cells with and without IFNγ were dispensed to the respective wells of 384-well assay plates containing the compounds. The plates were incubated for about 48 hours at a 37° C., 5% CO2 incubator. Afterwards, 12 μL of 0.5 M methyl isonipecotate in dimethyl sulfoxide were added into each well and the plates were sealed and incubated at 37° C. without CO2 overnight. The plates were centrifuged for 1 min at 200×g. The resulting fluorescence was measured in a Spectramax plate reader (Molecular Devices) with a 400 nm excitation filter and a 510 nm emission filter.
Potencies were calculated by […] least squares fit to the four parameter logistic IC50 equation.

Sequence of IDO1 (P14902 whole entry): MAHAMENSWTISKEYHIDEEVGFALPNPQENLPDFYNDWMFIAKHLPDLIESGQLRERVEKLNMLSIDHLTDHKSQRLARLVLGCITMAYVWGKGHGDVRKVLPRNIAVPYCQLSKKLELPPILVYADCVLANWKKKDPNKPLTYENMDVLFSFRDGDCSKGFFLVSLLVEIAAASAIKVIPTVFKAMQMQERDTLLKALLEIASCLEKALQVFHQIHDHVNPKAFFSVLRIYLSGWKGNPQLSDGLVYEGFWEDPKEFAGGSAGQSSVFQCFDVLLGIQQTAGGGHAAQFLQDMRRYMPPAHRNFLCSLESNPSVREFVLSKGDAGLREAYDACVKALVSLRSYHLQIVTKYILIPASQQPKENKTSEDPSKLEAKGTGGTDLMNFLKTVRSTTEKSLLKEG

Row | IC50 [nM] | SMILES
1 | 118 | C[C@@H](C(=O)Nc1cnc(Cl)nc1)C12CC(NC(=O)c3ccc(Cl)c(Cl)c3)(C1)C2 [Example 90, (R)-3,4-dichloro-N-(3-(1-((2-chloropyrimidin-5-yl)amino)-1-oxopropan-2-yl)bicyclo[1.1.1]pentan-1-yl)benzamide]
2 | 152 | C[C@H](C(=O)Nc1ccc(F)cc1)C12CC(NC(=O)c3ccc(Cl)c(F)c3)(C1)C2 [Example 47, 4-chloro-3-fluoro-N-[3-[(1S)-2-(4-fluoroanilino)-1-methyl-2-oxo-ethyl]-1-bicyclo[1.1.1]pentanyl]benzamide]
3 | 377 | O=C(NC1(C23CC(NC(=O)c4ccc(C(F)(F)F)cn4)(C2)C3)CC1)c1ccc(F)cc1 [Example 26, N-(3-(1-(4-fluorobenzamido)cyclopropyl)bicyclo[1.1.1]pentan-1-yl)-5-(trifluoromethyl)picolinamide]
4 | 11.2 | CC(C(=O)Nc1ccc(F)cc1)C12CC(NC(=O)c3cccc(OC(F)(F)F)c3)(C1)C2 (stereo not drawn) [Example 109, N-[3-[2-(4-fluoroanilino)-1-methyl-2-oxo-ethyl]-1-bicyclo[1.1.1]pentanyl]-3-(trifluoromethoxy)benzamide]
5 | 318 | Cc1nc(C)c(C(=O)NC23CC(C(C)C(=O)Nc4ccc(F)cc4)(C2)C3)s1 (stereo not drawn) [Example 136, N-[3-[2-(4-fluoroanilino)-1-methyl-2-oxo-ethyl]-1-bicyclo[1.1.1]pentanyl]-2,4-dimethyl-thiazole-5-carboxamide]
6 | 109 | Cc1cc(C(=O)NC23CC([C@@H](C)C(=O)Nc4ccc(F)cc4)(C2)C3)ccc1Cl [Example 45, 4-chloro-N-[3-[(1R)-2-(4-fluoroanilino)-1-methyl-2-oxo-ethyl]-1-bicyclo[1.1.l]pentanyl]-3-methyl-benzamide]
7 | 152 | C[C@H](C(=O)Nc1ccc(F)cc1)C12CC(NC(=O)c3cc(F)cc(Cl)c3)(C1)C2 [Example 55, 3-chloro-5-fluoro-N-[3-[(1S)-2-(4-fluoroanilino)-1-methyl-2-oxo-ethyl]-1-bicyclo[1.1.1]pentanyl]benzamide]
8 | 2.35 | C[C@@H](C(=O)Nc1ccc(F)cc1)C12CC(NC(=O)c3cc(F)cc(Cl)c3)(C1)C2 [Example 40, 3-chloro-5-fluoro-N-[3-[(1R)-2-(4-fluoroanilino)-1-methyl-2-oxo-ethyl]-1-bicyclo[1.1.1]pentanyl]benzamide]
9 | 16.9 | CC(C)(C(=O)Nc1ccc(F)cc1)C12CC(NC(=O)c3ccc(Cl)c(Cl)c3)(C1)C2 [Example 101, 3,4-Dichloro-N-(3-(1-((4-fluorophenyl)amino)-2-methyl-1-oxopropan-2-yl)bicyclo[1.1.1]pentan-1-yl)benzamide]
10 | 29.2 | CC(C(=O)Nc1ccc(Cl)cc1)C12CC(NC(=O)OC3CC3)(C1)C2 (single isomer, unassigned) [Example 20, Cyclopropyl (3-(1-((4-chlorophenyl)amino)-1-oxopropan-2-yl)bicyclo [1.1.1]pentan-1-yl) carbamate]
11 | 34.8 | C[C@H](C(=O)Nc1ccc(F)cc1)C12CC(NC(=O)c3cccc(C(F)(F)F)n3)(C1)C2 [Example 152, (S)-N-(3-(1-((4-fluorophenyl)amino)-1-oxopropan-2-yl)bicyclo[1.1.1]pentan-1-yl)-6-(trifluoromethyl)picolinamide]
12 | 16.6 | Cc1ccc(C(=O)NC23CC([C@H](C)C(=O)Nc4ccc(F)cc4)(C2)C3)cc1F [Example 58, 3-fluoro-N-[3-[(1S)-2-(4-fluoroanilino)-1-methyl-2-oxo-ethyl]-1-bicyclo[1.1.1]pentanyl]-4-methyl-benzamide]
13 | 36.4 | CC(C(=O)Nc1ccc(Cl)c(F)c1)C12CC(NC(=O)c3cccc(Cl)c3)(C1)C2 (single isomer, unassigned) [Example 10, 3-chloro-N-(3-(1-((4-chloro-3-fluorophenyl)amino)-1-oxopropan-2-yl)bicyclo[1.1.1]pentan-1-yl)benzamide]
14 | 107 | O=C(NC12CC(C3(NC(=O)c4ccc(F)cc4)CC3)(C1)C2)OCc1ccccc1 [Example 23, Benzyl (3-(1-(4-fluorobenzamido)cyclopropyl)bicyclo[1.1.1]pentan-1-yl)carbamate]
15 | 47.3 | CC(C(=O)Nc1ccc(F)cc1)C12CC(NC(=O)c3cnn4ccccc34)(C1)C2 (stereo not drawn) [Example 113, N-[3-[2-(4-fluoroanilino)-1-methyl-2-oxo-ethyl]-1-bicyclo[1.1.1]pentanyl]pyrazolo[1,5-a]pyridin-1-ium-3-carboxamide]
16 | 157 | C[C@H](C(=O)Nc1ccc(F)cc1)C12CC(NC(=O)c3ccc(Cl)nc3)(C1)C2 [Example 60, 6-chloro-N-[3-[(1S)-2-(4-fluoroanilino)-1-methyl-2-oxo-ethyl]-1-bicyclo[1.1.1]pentanyl]pyridin-1-ium-3-carboxamide]
17 | 34.2 | CC(C(=O)Nc1ccc(F)cc1)C12CC(NC(=O)c3cccc4cncn34)(C1)C2 (stereo not drawn) [Example 111, N-[3-[2-(4-fluoroanilino)-1-methyl-2-oxo-ethyl]-1-bicyclo[1.1.1]pentanyl]imidazo[1,5-a]pyridin-2-ium-5-carboxamide]
18 | 90.3 | C[C@H](C(=O)Nc1ccc(F)cc1)C12CC(NC(=O)Nc3cccc(C(F)(F)F)c3)(C1)C2 [Example 87, (S)-N-(4-fluorophenyl)-2-(3-(3-(3-(trifluoromethyl)phenyl)ureido)bicyclo[1.1.1]pentan-1-yl)propanamide]
19 | 6.52 | C[C@H](C(=O)Nc1ccc(F)cc1)C12CC(NC(=O)c3cncc(Cl)c3)(C1)C2 [Example 59, 5-chloro-N-[3-[(1S)-2-(4-fluoroanilino)-1-methyl-2-oxo-ethyl]-1-bicyclo[1.1.1]pentanyl]pyridin-1-ium-3-carboxamide]
20 | 39 | C[C@H](C(=O)Nc1ccc(F)cc1)C12CC(NC(=O)Nc3ccc(F)c(Cl)c3)(C1)C2 [Example 83, (S)-2-(3-(3-(3-chloro-4-fluorophenyl)ureido)bicyclo [1.1.1]pentan-1-yl)-N-(4-fluorophenyl)propanamide]
21 | 183 | CC(C(=O)Nc1ccc(Cl)nc1)C12CC(NC(=O)c3cccc(Cl)c3)(C1)C2 (single isomer, unassigned) [Example 16, 3-chloro-N-(3-(1-((6-chloropyridin-3-yl)amino)-1-oxopropan-2-yl)bicyclo[1.1.1]pentan-1-yl)benzamide]
22 | 17.7 | CCc1cc(C(=O)NC23CC(C(C)C(=O)Nc4ccc(F)cc4)(C2)C3)no1 (stereo not drawn) [Example 110, 5-ethyl-N-[3-[2-(4-fluoroanilino)-1-methyl-2-oxo-ethyl]-1-bicyclo[1.1.1]pentanyl]isoxazole-3-carboxamide]
23 | 252 | Cc1ccc(C(=O)NC23CC(C(C)C(=O)Nc4ccc(F)cc4)(C2)C3)cn1 (stereo not drawn) [Example 132, N-[3-[2-(4-fluoroanilino)-1-methyl-2-oxo-ethyl]-1-bicyclo[1.1.1]pentanyl]-6-methyl-pyridin-1-ium-3-carboxamide]
24 | 77.2 | Cc1c(Cl)cccc1NC(=O)NC12CC([C@H](C)C(=O)Nc3ccc(F)cc3)(C1)C2 [Example 84, (S)-2-(3-(3-(3-chloro-2-methylphenyl)ureido)bicyclo [1.1.1]pentan-1-yl)-N-(4-fluorophenyl)propanamide]
25 | 30.9 | C[C@H](C(=O)Nc1ccc(F)cc1)C12CC(NC(=O)c3cccc(C(F)(F)F)c3)(C1)C2 [Example 62, N-[3-[(1S)-2-(4-fluoroanilino)-1-methyl-2-oxo-ethyl]-1-bicyclo[1.1.1]pentanyl]-3-(trifluoromethyl)benzamide]
26 | 463 | CC(C(=O)Nc1ccc(F)cc1)C12CC(NC(=O)c3cc4ccccc4cn3)(C1)C2 (stereo not drawn) [Example 144, N-[3-[2-(4-fluoroanilino)-1-methyl-2-oxo-ethyl]-1-bicyclo[1.1.1]pentanyl]isoquinolin-2-ium-3-carboxamide]
27 | 104 | O=C(NC1(C23CC(NC(=O)c4cc(C(F)F)ccn4)(C2)C3)CC1)c1ccc(F)cc1 [Example 27, 4-(difluoromethyl)-N-(3-(1-(4-fluorobenzamido)cyclopropyl)bicyclo[1.1.1]pentan-1-yl)picolinamide]
28 | 180 | CC(C(=O)Nc1ccc(F)cc1)C12CC(NC(=O)c3cccc4ccnn34)(C1)C2 (stereo not drawn) [Example 126, N-[3-[2-(4-fluoroanilino)-1-methyl-2-oxo-ethyl]-1-bicyclo[1.1.1]pentanyl]pyrazolo[1,5-a]pyridin-1-ium-7-carboxamide]
29 | 98 | COc1cc(C(=O)NC23CC([C@H](C)C(=O)Nc4ccc(F)cc4)(C2)C3)ccc1F [Example 67, 4-fluoro-N-[3-[(1S)-2-(4-fluoroanilino)-1-methyl-2-oxo-ethyl]-1-bicyclo[1.1.1]pentanyl]-3-methoxy-benzamide]
30 | 232 | CC(C(=O)Nc1ccc(F)cc1)C12CC(NC(=O)c3ccccn3)(C1)C2 (stereo not drawn) [Example 129, N-[3-[2-(4-fluoroanilino)-1-methyl-2-oxo-ethyl]-1-bicyclo[1.1.1]pentanyl]pyridin-1-ium-2-carboxamide]

Source: patent publication US11478461B2, “[1.1.1] bicyclo compounds as indoleamine 2,3-dioxygenase inhibitors” (Merck Sharp & Dohme Corp., priority 2018, dated 2022)
